Holding throughout (assay type): cell-based
Experiment [1] has as its system Bordetella bronchiseptica (SM2-4). The experiment is described as follows: Antibacterial activity (IC), broth microplate as in Example 4 (Example 7, Table 42). As to conditions: 18 h. The procedure:
(§1) A suitable amount of a sample was dissolved in dimethylsulfoxide (DMSO), and the resultant solution was diluted with the same amount of sterilized distilled water to prepare a bulk sample of 1,000 µg/ml. Mueller-Hinton broth (product of DIFCO) was dispensed into each well of 96-well microplate. Thereafter, the bulk specimen was added to the first well of a row, and successively diluted (10-fold each time) with sterilized distilled water. Separately, a bacterial cell suspension for the test (Staphylococcus aureus 209-P) which had been cultured in the above-mentioned broth overnight at 37°C was inoculated to each well so that the final inoculation amount of 10^6 CFU/ml was attained. The final concentrations of the samples were 100, 10, and 1 µg/ml.
(§2) The antibacterial action was evaluated by the inhibitory concentration (hereinafter abbreviated as IC) at which propagation of the bacteria cultured at 37°C for 18 hours was inhibited. Inhibition was determined by the turbidity of the medium. The expressions "IC≤100", "≤10", and "≤1" indicate that MIC-equivalent values obtained at the succesive […] dilution of the sample are 100-10 µg/ml, 10-1 µg/ml, and not more than 1 µg/ml, respectively. […] (In the subsequent Examples, the same rule applies correspondingly.) Table 39
In a manner similar to that described in Example 4, antibacterial activity of the invention compound was determined. The bacterium used for the test was Bordetella bronchiseptica (SM2-4).

Experiment [2] relates to Staphylococcus aureus 209-P. The experiment is described as follows: Antibacterial activity (IC), Mueller-Hinton broth, 96-well microplate (Example 4, Table 39). As to conditions: 37°C, 18 hours. The procedure: as §1, §2
In experiment [3] the test system is Pasteurella multocida (Kobe-6). Description: Antibacterial activity (IC), broth microplate as in Example 4 (Example 6, Table 41). As to conditions: 18 h, origin pig. The procedure:
as §1, §2
In a manner similar to that described in Example 4, antibacterial activity of the invention compound was determined. The bacterium used for the test was Pasteurella Kobe-6 (origin: pig; Pasteurella multocida).

Experiment [4] concerns Staphylococcus aureus TI-1. The experiment is described as follows: Antibacterial activity (IC), broth microplate as in Example 4 (Example 5, Table 40). As to conditions: TI1, 18 h. The procedure:
as §1, §2
In a manner similar to that described in Example 4, antibacterial activity of the invention compound was determined. The bacterium used for the test was Staphylococcus aureus TI-1.

In brackets after ≈: the same amount, converted by molar mass.

As a reminder, the MIC is the smallest concentration in the dilution series that meets the test's criterion for growth inhibition. Low readings indicate inhibition by little substance, high ones a need for much substance. For the molecule `CC(Oc1ccc(Oc2ncc(C(F)(F)F)cc2Cl)cc1)C(=O)C(C#N)c1ccc(Cl)cc1Cl` (centres unmarked) [Compound No. 2, 4-[4-(3-chloro-5-trifluoromethyl-2-pyridyloxy)phenoxy]-2-(2,4-dichlorophenyl)-3-oxopentanonitrile], the MIC in experiment [1] was in the range of 10 to 100 µg/mL (≈ 18.9 to 189 µM); in experiment [2] it was 10 to 100 µg/mL (≈ 18.9 to 189 µM); in experiment [3], 10 to 100 µg/mL (≈ 18.9 to 189 µM); in experiment [4] it was 1 to 10 µg/mL (≈ 1.89 to 18.9 µM).
On to `CC(Oc1ccc(Oc2ncc(C(F)(F)F)cc2Cl)cc1)C(=O)C(C#N)c1cccc2ccccc12` (centres unmarked) [compound 14], for which the minimum inhibitory concentration (MIC) in experiment [1], in experiment [2] and in experiment [4] was 10 to 100 µg/mL (≈ 19.6 to 196 µM) each time.
In the case of `N#CC(C(=O)COc1ccc(Oc2ncc(C(F)(F)F)cc2Cl)cc1)c1ccc(Cl)cc1Cl` (centres unmarked) [compound 9], the minimum inhibitory concentration (MIC) in experiment [1] was in the range of 10 to 100 µg/mL (≈ 19.4 to 194 µM).
As for `CC(Oc1ccc(Oc2ncc(C(F)(F)F)cc2Cl)cc1)C(=O)C(C#N)c1cccc(Cl)c1` (centres unmarked) [Compound No. 10], the MIC in experiment [2] lay within 1 to 10 µg/mL (≈ 2.02 to 20.2 µM); in experiment [3] it was 10 to 100 µg/mL (≈ 20.2 to 202 µM); in experiment [4], 1 to 10 µg/mL (≈ 2.02 to 20.2 µM).
`CC(Oc1ccc(Oc2ccc(C(F)(F)F)cc2Cl)cc1)C(=O)C(C#N)c1nc(Cl)cc(Cl)n1` (centres unmarked) [compound 22]: the minimal inhibitory concentration (MIC) was 1 to 10 µg/mL (≈ 1.88 to 18.8 µM) in experiment [2], 10 to 100 µg/mL (≈ 18.8 to 188 µM) in experiment [3] and 1 to 10 µg/mL (≈ 1.88 to 18.8 µM) in experiment [4].
As for `CCC(Oc1ccc(Oc2ncc(C(F)(F)F)cc2Cl)cc1)C(=O)C(C#N)c1ccc(Cl)cc1Cl` (centres unmarked) [Compound No. 15], the results for the minimum inhibitory concentration (MIC) in experiment [2], in experiment [3] and in experiment [4] were 1 to 10 µg/mL (≈ 1.84 to 18.4 µM), 10 to 100 µg/mL (≈ 18.4 to 184 µM) and 1 to 10 µg/mL (≈ 1.84 to 18.4 µM), respectively.
